One may read the IC50 as the concentration needed to halve the response being measured.

This note sets out measurements from patent publication US8431563B2 (priority 2010, dated 2013).

In experiment [1] the target is T1, interaction between glucokinase (GK) and glucokinase regulatory protein (GKRP) (Homo sapiens, UniProt Q14397).
T1 sequence (Q14397 1-625): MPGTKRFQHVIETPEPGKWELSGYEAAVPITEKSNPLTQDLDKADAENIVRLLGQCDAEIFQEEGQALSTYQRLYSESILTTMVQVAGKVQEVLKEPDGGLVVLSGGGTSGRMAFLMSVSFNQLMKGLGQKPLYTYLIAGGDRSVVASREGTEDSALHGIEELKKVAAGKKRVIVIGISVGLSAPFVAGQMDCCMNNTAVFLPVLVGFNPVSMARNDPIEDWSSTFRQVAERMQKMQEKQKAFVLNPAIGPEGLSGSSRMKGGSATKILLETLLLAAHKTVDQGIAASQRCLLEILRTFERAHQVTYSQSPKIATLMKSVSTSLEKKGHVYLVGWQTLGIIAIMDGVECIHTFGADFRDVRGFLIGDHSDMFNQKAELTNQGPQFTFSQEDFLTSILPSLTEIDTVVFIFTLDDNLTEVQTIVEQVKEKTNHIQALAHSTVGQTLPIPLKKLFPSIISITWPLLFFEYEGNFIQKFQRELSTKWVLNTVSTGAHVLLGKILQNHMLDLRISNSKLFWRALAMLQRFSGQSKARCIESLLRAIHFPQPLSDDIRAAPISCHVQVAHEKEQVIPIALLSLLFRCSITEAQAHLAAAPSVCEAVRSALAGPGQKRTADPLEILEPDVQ
As to the kind of experiment: biochemical. In kind it is binding. Put shortly:
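Measures direct GK–GKRP binding in 20 mM Tris pH 7.5 containing 1 μM sorbitol-6-phosphate, 0.05% BSA and 1 mM DTT. Compound and avi-tagged GKRP sit 20 min at room temperature before GK-fluorescein addition (6 nM in the added buffer); read after 2 h dark incubation at room temperature.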

For experiment [2], the target named is T2, GKRP (Glucokinase Regulatory Protein) with human His-hepatic GK (Homo sapiens, UniProt Q14397).
T2 sequence (Q14397 1-625): T1 sequence (Q14397 1-625)
The experiment is described as follows: biochemical. Put shortly: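 Product formation, 13C-glucose-6-phosphate from 13C-glucose, was measured directly by LC MS/MS after acetonitrile quench. The GK reaction ran 30 min at room temperature in Tris pH 7.5 buffer with 4 mM MgCl2 and 6% DMSO. The 5× enzyme stock was 30 nM His-tagged human hepatic glucokinase.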

Where [3] appears, read: avi-tagged GKRP, GK-fluorescein, AlphaScreen beads, read-out: GK-GKRP IC50 (Binding).
Setting [4] is: 13C-glucose-6-phosphate formation, 280 nM GKRP (10×), 30 nM GK (5×), read-out: GK-GKRP EC50 (LC MS/MS-2).

Read-outs that look alike come from different tables or passages of the source.

In the case of `CC(O)(c1ccc(N2CCN(S(=O)(=O)c3cccs3)C[C@@H]2CN(Cc2cccnc2)S(C)(=O)=O)cc1)C(F)(F)F` (mixture of isomers) [Example 221, N-(3-pyridinylmethyl)-N-(((2S)-4-(2-thiophenylsulfonyl)-1-(4-(2,2,2-trifluoro-1-hydroxy-1-methylethyl)phenyl)-2-piperazinyl)methyl)methanesulfonamide], in experiment [1] (setting [3]), the 50% inhibitory concentration (IC50) was found to be 13 nM. Besides, in experiment [2] (setting [4]), the EC50 was 41 nM.

As for `CC(C)CS(=O)(=O)N(C[C@H]1CN(S(=O)(=O)c2cccs2)CCN1c1ccc(C(C)(O)C(F)(F)F)cc1)c1cccnc1` (mixture of isomers) [Example 223, 2-methyl-N-3-pyridinyl-N-(((2R)-4-(2-thiophenylsulfonyl)-1-(4-(2,2,2-trifluoro-1-hydroxy-1-methylethyl)phenyl)-2-piperazinyl)methyl)-1-propanesulfonamide], in experiment [1] (setting [3]), the IC50 was found to be 35 nM. The EC50 in experiment [2] (setting [4]) was determined as 86 nM.

For the molecule `CC(=O)N(C[C@H]1CN(S(=O)(=O)c2cccs2)CCN1c1ccc(C(C)(O)C(F)(F)F)cc1)c1ccccc1` (mixture of isomers) [Example 224, N-phenyl-N-(((2S)-4-(2-thiophenylsulfonyl)-1-(4-(2,2,2-trifluoro-1-hydroxy-1-methylethyl)phenyl)-2-piperazinyl)methyl)acetamide], the IC50 in experiment [1] (setting [3]) is 8 nM. Further, the EC50 in experiment [2] (setting [4]) was 27 nM.

For `CC1(C)C(=O)NC(=O)N1C[C@H]1CN(S(=O)(=O)c2cccs2)CCN1c1ccc(C(C)(O)C(F)(F)F)cc1` (mixture of isomers) [Example 228, 5,5-dimethyl-1-(((2S)-4-(2-thiophenylsulfonyl)-1-(4-(2,2,2-trifluoro-1-hydroxy-1-methylethyl)phenyl)-2-piperazinyl)methyl)-2,4-imidazolidinedione], the IC50 in experiment [1] (setting [3]) was 151 nM. In experiment [2] (setting [4]), the EC50 came out at 312 nM.

As for `CC(O)(c1ccc(N2CCN(S(=O)(=O)c3cccs3)C[C@@H]2CN2CCS(=O)(=O)CC2)cc1)C(F)(F)F` (mixture of isomers) [Example 85, 2-(4-((2S)-2-((1,1-dioxido-4-thiomorpholinyl)methyl)-4-(2-thiophenylsulfonyl)-1-piperazinyl)phenyl)-1,1,1-trifluoro-2-propanol], in experiment [1] (setting [3]), the IC50 came to 350 nM. Besides, the EC50 in experiment [2] (setting [4]) was 475 nM.

Regarding `CC(O)(c1ccc(N2CCN(S(=O)(=O)c3ccc(N)s3)CC2)cc1)C(F)(F)F` (racemic) [Example 90, 2-(4-(4-((5-amino-2-thiophenyl)sulfonyl)-1-piperazinyl)phenyl)-1,1,1-trifluoro-2-propanol], in experiment [1] (setting [3]), the IC50 came out at 448 nM. The EC50 in experiment [2] (setting [4]) was determined as 836 nM.

For `CC(O)(c1ccc(N2CCN(S(=O)(=O)c3ccc(N)nc3)C[C@@H]2CC2CCOCC2)cc1)C(F)(F)F` (mixture of isomers) [Example 127, 2-(4-((2S)-4-((6-amino-3-pyridinyl)sulfonyl)-2-(tetrahydro-2H-pyran-4-ylmethyl)-1-piperazinyl)phenyl)-1,1,1-trifluoro-2-propanol], the 50% inhibitory concentration (IC50) in experiment [1] (setting [3]) came out at 55 nM. For the same molecule, the EC50 in experiment [2] (setting [4]) was 58 nM.

Take `C[C@H]1COCCN1C[C@H]1CN(S(=O)(=O)c2ccc(N)nc2)CCN1c1ncc(C(C)(O)C(F)(F)F)cn1` (mixture of isomers) [Example 129, 2-(2-((2S)-4-((6-amino-3-pyridinyl)sulfonyl)-2-(((3S)-3-methyl-4-morpholinyl)methyl)-1-piperazinyl)-5-pyrimidinyl)-1,1,1-trifluoro-2-propanol]: the IC50 in experiment [1] (setting [3]) turned out to be 36 nM. Also, the EC50 in experiment [2] (setting [4]) was 99 nM.

Consider `C[C@H]1CN(S(=O)(=O)c2ccc(N)s2)CCN1c1ccc(C(C)(O)C(F)(F)F)cc1` (mixture of isomers) [Example 139, 2-(4-((2S)-4-((5-amino-2-thiophenyl)sulfonyl)-2-methyl-1-piperazinyl)phenyl)-1,1,1-trifluoro-2-propanol], for which the IC50 in experiment [1] (setting [3]) was determined as 630 nM. In addition, the EC50 in experiment [2] (setting [4]) is 370 nM.

The molecule `C[C@@H](C[C@H]1CN(S(=O)(=O)c2cccs2)CCN1c1ccc([C@](C)(O)C(F)(F)F)cc1)NC1COC1` (racemic) [Example 148, 1,1,1-trifluoro-2-(4-((2S)-2-(2-(3-oxetanylamino)propyl)-4-(2-thiophenylsulfonyl)-1-piperazinyl)phenyl)-2-propanol] yielded an IC50 in experiment [1] (GK-GKRP IC50 (Binding)) of 1120 nM. For the same molecule, the EC50 in experiment [2] (GK-GKRP EC50 (LC MS/MS-2)) is 529 nM.

In the case of `CC(O)C#Cc1cc(C(O)(C(F)(F)F)C(F)(F)F)ccc1N1CCN(S(=O)(=O)c2cccs2)CC1` (racemic) [Example 151, 4-(2-(4-(2-thiophenylsulfonyl)-1-piperazinyl)-5-(2,2,2-trifluoro-1-hydroxy-1-(trifluoromethyl)ethyl)phenyl)-3-butyn-2-ol], the IC50 in experiment [1] (setting [3]) was 396 nM. Besides, the EC50 in experiment [2] (setting [4]) was 994 nM.

Take `CCC(C#Cc1cc(C(O)(C(F)(F)F)C(F)(F)F)ccc1N1CCN(S(=O)(=O)c2cccs2)CC1)OC` (racemic) [Example 155, 1,1,1,3,3,3-hexafluoro-2-(3-(3-methoxy-1-pentyn-1-yl)-4-(4-(2-thiophenylsulfonyl)-1-piperazinyl)phenyl)-2-propanol]: the IC50 in experiment [1] (setting [3]) worked out at 145 nM. Moreover, the EC50 in experiment [2] (setting [4]) came out at 112 nM.

On to `CCC(C#Cc1cc(C(O)(C(F)(F)F)C(F)(F)F)ccc1N1CCC(S(=O)(=O)c2ccccc2)CC1)OC` (racemic) [Example 163, 1,1,1,3,3,3-hexafluoro-2-(3-(3-methoxypent-1-ynyl)-4-(4-(phenylsulfonyl)piperidin-1-yl)phenyl)-2-propanol], for which, in experiment [1] (setting [3]), the concentration for half-maximal inhibition (IC50) was determined as 602 nM. The EC50 in experiment [2] (setting [4]) was determined as 807 nM.

In the case of `COc1ccccc1CC1CN(S(=O)(=O)c2cccs2)CCN1c1ccc(C(O)(C(F)(F)F)C(F)(F)F)cc1` (racemic) [Example 174, 1,1,1,3,3,3-hexafluoro-2-(4-(2-(2-methoxybenzyl)-4-(thiophen-2-ylsulfonyl)piperazin-1-yl)phenyl)-2-propanol], the IC50 in experiment [1] (setting [3]) is 167 nM. Also, the EC50 in experiment [2] (setting [4]) was found to be 114 nM.

With `O=S(=O)(c1cccs1)N1CCN(c2ccc(C(O)(C(F)(F)F)C(F)(F)F)cc2)C(Cc2ccccc2O)C1` (racemic) [Example 178, 2-((1-(4-(1,1,1,3,3,3-hexafluoro-2-hydroxypropan-2-yl)phenyl)-4-(thiophen-2-ylsulfonyl)piperazin-2-yl)methyl)phenol], the IC50 in experiment [1] (setting [3]) worked out at 170 nM. In experiment [2] (setting [4]), the EC50 was found to be 84 nM.

On to `CC(C)C1C(=O)NCCN1C[C@H]1CN(S(=O)(=O)c2cccs2)CCN1c1ncc(C(O)(C(F)(F)F)C(F)(F)F)cn1` (mixture of isomers) [Example 185, 3-(1-methylethyl)-4-(((2S)-4-(2-thiophenylsulfonyl)-1-(5-(2,2,2-trifluoro-1-hydroxy-1-(trifluoromethyl)ethyl)-2-pyrimidinyl)-2-piperazinyl)methyl)-2-piperazinone], for which, in experiment [1] (setting [3]), the IC50 amounted to 1 nM. Also, in experiment [2] (setting [4]), the EC50 is 16 nM.

Consider `CC(O)(c1ccc(N2CCN(S(=O)(=O)c3cccs3)C[C@@H]2CS(=O)(=O)c2cccc(F)c2)cc1)C(F)(F)F` (mixture of isomers) [Example 189 Peak#1, 1,1,1-trifluoro-2-(4-((2R)-2-(((3-fluorophenyl)sulfonyl)methyl)-4-(2-thiophenylsulfonyl)-1-piperazinyl)phenyl)-2-propanol], for which the IC50 in experiment [1] (setting [3]) turned out to be 374 nM. Moreover, the EC50 in experiment [2] (setting [4]) was 235 nM.

For `CC(O)(c1ccc(N2CCN(S(=O)(=O)c3cccs3)C[C@@H]2CS(=O)(=O)c2ccc(F)cc2)cc1)C(F)(F)F` (mixture of isomers) [Example 191 Peak#1, 1,1,1-trifluoro-2-(4-((2R)-2-(((4-fluorophenyl)sulfonyl)methyl)-4-(2-thiophenylsulfonyl)-1-piperazinyl)phenyl)-2-propanol], in experiment [1] (setting [3]), the IC50 stood at 177 nM. Moreover, the EC50 in experiment [2] (setting [4]) is 166 nM.

Consider `CC(O)(c1ccc(N2CCN(S(=O)(=O)c3cccs3)C[C@@H]2CNS(=O)(=O)c2cccnc2)cc1)C(F)(F)F` (mixture of isomers) [Example 192, N-(((2S)-4-(2-thiophenylsulfonyl)-1-(4-(2,2,2-trifluoro-1-hydroxy-1-methylethyl)phenyl)-2-piperazinyl)methyl)-3-pyridinesulfonamide], for which the IC50 in experiment [1] (setting [3]) was 103 nM. For the same molecule, the EC50 in experiment [2] (setting [4]) worked out at 126 nM.

For the molecule `CC(C)N(C[C@H]1CN(S(=O)(=O)c2cccs2)CCN1c1ccc(C(C)(O)C(F)(F)F)cc1)S(C)(=O)=O` (mixture of isomers) [Example 195, N-(1-methylethyl)-N-(((2R)-4-(2-thiophenylsulfonyl)-1-(4-(2,2,2-trifluoro-1-hydroxy-1-methylethyl)phenyl)-2-piperazinyl)methyl)methanesulfonamide], in experiment [1] (setting [3]), the IC50 was found to be 28 nM. The EC50 in experiment [2] (setting [4]) is 57 nM.
